{"source": "ChEMBL document CHEMBL2150993", "about": "“Substituted thiazoles VII. Synthesis and antitumor activity of certain 2-(substituted amino)-4-phenyl-1,3-thiazole analogs” (2012)", "format_in_all_cases": "functional", "key": {"[1]": {"tested_on": "HOP-62", "assay": "Growth inhibition of human HOP62 cells after 48 hrs by cell counting analysis", "settings": "at 10 µM"}, "[2]": {"tested_on": "SK-MEL-28", "assay": "Growth inhibition of human SK-MEL-28 cells after 48 hrs by cell counting analysis", "settings": "at 10 µM"}, "[3]": {"assay": "Antiproliferative activity against human ovarian cancer cells after 48 hrs by cell counting analysis", "settings": "Cancer cell lines"}, "[4]": {"tested_on": "SNB-75", "assay": "Growth inhibition of human SNB75 cells after 48 hrs by cell counting analysis", "settings": "at 10 µM"}, "[5]": {"tested_on": "SR", "assay": "Growth inhibition of human SR cells after 48 hrs by cell counting analysis", "settings": "at 10 µM"}, "[6]": {"assay": "Antiproliferative activity against human prostate cancer cells after 48 hrs by cell counting analysis", "settings": "Cancer cell lines"}, "[7]": {"tested_on": "NCI-H23", "assay": "Growth inhibition of human NCI-H23 cells after 48 hrs by cell counting analysis", "settings": "at 10 µM"}, "[8]": {"tested_on": "MDA-MB-435", "assay": "Growth inhibition of human MDA-MB-435 cells after 48 hrs by cell counting analysis", "settings": "at 10 µM"}, "[9]": {"tested_on": "A549", "assay": "Growth inhibition of human A549 cells after 48 hrs by cell counting analysis", "settings": "at 10 µM"}, "[10]": {"tested_on": "MDA-MB-468", "assay": "Growth inhibition of human MDA-MB-468 cells after 48 hrs by cell counting analysis"}, "[11]": {"tested_on": "BT-549", "assay": "Growth inhibition of human BT549 cells after 48 hrs by cell counting analysis", "settings": "at 10 µM"}, "[12]": {"tested_on": "HOP-92", "assay": "Growth inhibition of human HOP92 cells after 48 hrs by cell counting analysis"}, "[13]": {"tested_on": "OVCAR-8", "assay": "Growth inhibition of human OVCAR8 cells after 48 hrs by cell counting analysis", "settings": "at 10 µM"}, "[14]": {"tested_on": "NCI-H226", "assay": "Growth inhibition of human NCI-H226 cells after 48 hrs by cell counting analysis", "settings": "at 10 µM"}, "[15]": {"tested_on": "SNB-19", "assay": "Growth inhibition of human SNB19 cells after 48 hrs by cell counting analysis", "settings": "at 10 µM"}, "[16]": {"tested_on": "SF-539", "assay": "Growth inhibition of human SF539 cells after 48 hrs by cell counting analysis", "settings": "at 10 µM"}, "[17]": {"tested_on": "ACHN", "assay": "Growth inhibition of human ACHN cells after 48 hrs by cell counting analysis", "settings": "at 10 µM"}, "[18]": {"assay": "Antiproliferative activity against human leukemia cells after 48 hrs by cell counting analysis"}, "[19]": {"assay": "Antiproliferative activity against human non-small cell lung cancer cells after 48 hrs by cell counting analysis", "settings": "Cancer cell lines"}, "[20]": {"tested_on": "LOX IMVI", "assay": "Growth inhibition of human LOXIMVI cells after 48 hrs by cell counting analysis", "settings": "at 10 µM"}, "[21]": {"tested_on": "RXF 393", "assay": "Growth inhibition of human RXF393 cells after 48 hrs by cell counting analysis"}, "[22]": {"tested_on": "KM12", "assay": "Growth inhibition of human KM12 cells after 48 hrs by cell counting analysis", "settings": "at 10 µM"}, "[23]": {"tested_on": "M14", "assay": "Growth inhibition of human M14 cells after 48 hrs by cell counting analysis", "settings": "at 10 µM"}, "[24]": {"tested_on": "OVCAR-4", "assay": "Growth inhibition of human OVCAR4 cells after 48 hrs by cell counting analysis", "settings": "at 10 µM"}, "[25]": {"tested_on": "HL-60", "assay": "Growth inhibition of human HL60 cells after 48 hrs by cell counting analysis", "settings": "at 10 µM"}, "[26]": {"assay": "Antiproliferative activity against human colon cancer cells after 48 hrs by cell counting analysis", "settings": "Cancer cell lines"}, "[27]": {"assay": "Antiproliferative activity against human breast cancer cells after 48 hrs by cell counting analysis", "settings": "Cancer cell lines"}, "[28]": {"tested_on": "OVCAR-3", "assay": "Growth inhibition of human OVCAR3 cells after 48 hrs by cell counting analysis", "settings": "at 10 µM"}, "[29]": {"settings": "read-out: LC50 (the source's name)"}}, "note": "Active and inactive are the calls of the source. The rule behind the calls is not given here.", "data": [{"molecule": "O=C(CCCl)Nc1nc(-c2ccc(Cl)cc2)cs1", "values": [{"measurement": "growth inhibition (GI)", "setting": "[1]", "value": 49, "unit": "%"}, {"measurement": "growth inhibition (GI)", "setting": "[2]", "value": 21.2, "unit": "%"}, {"measurement": "GI50", "setting": "[3]", "value": 4.1, "unit": "µM"}, {"measurement": "TGI", "setting": "[3]", "value": 21.8, "unit": "µM"}, {"measurement": "CC50", "setting": "[3]; [29]", "value": 67, "unit": "µM"}, {"measurement": "growth inhibition (GI)", "setting": "[4]", "value": 58.8, "unit": "%"}, {"measurement": "growth inhibition (GI)", "setting": "[5]", "value": 77.7, "unit": "%"}, {"measurement": "GI50", "setting": "[6]", "value": 2800, "unit": "nM"}, {"measurement": "TGI", "setting": "[6]", "value": 13.8, "unit": "µM"}, {"measurement": "CC50", "setting": "[6]; [29]", "value": 42.2, "unit": "µM"}, {"measurement": "growth inhibition (GI)", "setting": "[7]", "value": 29, "unit": "%"}, {"measurement": "growth inhibition (GI)", "setting": "[8]", "value": 68.1, "unit": "%"}, {"measurement": "growth inhibition (GI)", "setting": "[9]", "value": 39.9, "unit": "%"}, {"measurement": "growth inhibition (GI)", "setting": "[10]", "value": "Active"}, {"measurement": "growth inhibition (GI)", "setting": "[11]", "value": 89.9, "unit": "%"}, {"measurement": "growth inhibition (GI)", "setting": "[12]", "value": "Active"}, {"measurement": "growth inhibition (GI)", "setting": "[13]", "value": 52.8, "unit": "%"}, {"measurement": "growth inhibition (GI)", "setting": "[14]", "value": 51, "unit": "%"}, {"measurement": "growth inhibition (GI)", "setting": "[15]", "value": 26.2, "unit": "%"}, {"measurement": "growth inhibition (GI)", "setting": "[16]", "value": 94.6, "unit": "%"}, {"measurement": "growth inhibition (GI)", "setting": "[17]", "value": 39.2, "unit": "%"}, {"measurement": "GI50", "setting": "[18]", "value": 2200, "unit": "nM"}, {"measurement": "TGI", "setting": "[18]", "value": 8.9, "unit": "µM"}, {"measurement": "CC50", "setting": "[18]; [29]", "value": 90.2, "unit": "µM"}, {"measurement": "GI50", "setting": "[19]", "value": 6.1, "unit": "µM"}, {"measurement": "TGI", "setting": "[19]", "value": 19, "unit": "µM"}, {"measurement": "CC50", "setting": "[19]; [29]", "value": 51.5, "unit": "µM"}, {"measurement": "growth inhibition (GI)", "setting": "[20]", "value": 43.1, "unit": "%"}, {"measurement": "growth inhibition (GI)", "setting": "[21]", "value": "Active"}, {"measurement": "growth inhibition (GI)", "setting": "[22]", "value": 43.8, "unit": "%"}, {"measurement": "growth inhibition (GI)", "setting": "[23]", "value": 44.7, "unit": "%"}, {"measurement": "growth inhibition (GI)", "setting": "[24]", "value": 16.4, "unit": "%"}, {"measurement": "growth inhibition (GI)", "setting": "[25]", "value": 28.5, "unit": "%"}, {"measurement": "GI50", "setting": "[26]", "value": 3.9, "unit": "µM"}, {"measurement": "TGI", "setting": "[26]", "value": 13.5, "unit": "µM"}, {"measurement": "CC50", "setting": "[26]; [29]", "value": 44, "unit": "µM"}, {"measurement": "GI50", "setting": "[27]", "value": 2400, "unit": "nM"}, {"measurement": "TGI", "setting": "[27]", "value": 8.8, "unit": "µM"}, {"measurement": "CC50", "setting": "[27]; [29]", "value": 55.9, "unit": "µM"}, {"measurement": "growth inhibition (GI)", "setting": "[28]", "value": 89.8, "unit": "%"}]}]}
